# Results taken from PubChem BioAssay AID1745844 (Carcinogenic Potency Database (CPDB), 2022).
# Several values for one entry are separate records, joined by “and”; a condition that tells them apart may be missing. Equal entries are not always repeated. Activity calls are given as the source filed them. How the calls were made is not given here.
# System: rodent lifetime carcinogenesis bioassay, tumor incidence TD50
# Test: chronic cancer bioassays in animals – CPDB, compiled studies (AID 1745844)
# Settings: rat
smiles,measurement,setting,value
ClCCl,carcinogen call,"strain Fischer 344, females, in drinking water, site: liver, lesion: hepatocellular carcinoma, dosed 78 weeks, study length 104 weeks",negative (inactive)
same,TD50,"strain Fischer 344, females, in drinking water, site: liver, lesion: hepatocellular carcinoma, dosed 104 weeks, study length 104 weeks",3630 mg/kg/day (inactive)
same,carcinogen call,"strain Fischer 344, females, in drinking water, site: liver, lesion: neoplastic nodule, dosed 78 weeks, study length 78 weeks",negative (inactive)
same,TD50,"strain Fischer 344, females, in drinking water, site: liver, lesion: neoplastic nodule, dosed 78 weeks, study length 104 weeks",1540 mg/kg/day (inactive)
same,TD50,"strain Fischer 344, females, in drinking water, site: liver, lesion: neoplastic nodule, dosed 104 weeks, study length 104 weeks",2340 mg/kg/day (inactive)
same,TD50,"strain Fischer 344, females, in drinking water, site: liver, lesion: several types, types named in the paper, dosed 78 weeks, study length 104 weeks",1540 mg/kg/day (inactive)
same,TD50,"strain Fischer 344, females, in drinking water, site: liver, lesion: several types, types named in the paper, dosed 104 weeks, study length 104 weeks",1430 mg/kg/day (inactive)
same,TD50,"strain Fischer 344, females, inhaled, site: all sites, lesion: mononuclear-cell leukemia, dosed 102 weeks, study length 104 weeks",1280 mg/kg/day
same,TD50,"strain Fischer 344, females, inhaled, site: any site (literature study), lesion: several types, types named in the paper, dosed 102 weeks, study length 104 weeks",501 mg/kg/day
same,TD50,"strain Fischer 344, females, inhaled, site: liver, lesion: hepatocellular adenoma + hepatocellular carcinoma + neoplastic nodule, dosed 102 weeks, study length 104 weeks",4270 mg/kg/day
same,TD50,"strain Fischer 344, females, inhaled, site: liver, lesion: hepatocellular carcinoma + neoplastic nodule, dosed 102 weeks, study length 104 weeks",4270 mg/kg/day
same,TD50,"strain Fischer 344, females, inhaled, site: mammary gland, lesion: adenocarcinoma, NOS + adenoma, NOS + fibroadenoma + mixed tumor, malignant, dosed 102 weeks, study length 104 weeks",670 mg/kg/day
same,TD50,"strain Fischer 344, females, inhaled, site: mammary gland, lesion: adenocarcinoma, NOS + adenoma, NOS + fibroadenoma, dosed 102 weeks, study length 104 weeks",630 mg/kg/day
same,TD50,"strain Fischer 344, females, inhaled, site: mammary gland, lesion: adenoma, NOS + fibroadenoma, dosed 102 weeks, study length 104 weeks",598 mg/kg/day
same,TD50,"strain Fischer 344, females, inhaled, site: mammary gland, lesion: fibroadenoma, dosed 102 weeks, study length 104 weeks",632 mg/kg/day
same,carcinogen call,"strain Fischer 344, males, in drinking water, site: liver, lesion: hepatocellular carcinoma, dosed 78 weeks, study length 104 weeks",negative (inactive)
same,carcinogen call,"strain Fischer 344, males, in drinking water, site: liver, lesion: hepatocellular carcinoma, dosed 104 weeks, study length 104 weeks",negative (inactive)
same,carcinogen call,"strain Fischer 344, males, in drinking water, site: liver, lesion: neoplastic nodule, dosed 78 weeks, study length 78 weeks",negative (inactive)
same,TD50,"strain Fischer 344, males, in drinking water, site: liver, lesion: neoplastic nodule, dosed 78 weeks, study length 104 weeks",1610 mg/kg/day (inactive)
same,carcinogen call,"strain Fischer 344, males, in drinking water, site: liver, lesion: neoplastic nodule, dosed 104 weeks, study length 104 weeks",negative (inactive)
same,TD50,"strain Fischer 344, males, in drinking water, site: liver, lesion: several types, types named in the paper, dosed 78 weeks, study length 104 weeks",3660 mg/kg/day (inactive)
same,carcinogen call,"strain Fischer 344, males, in drinking water, site: liver, lesion: several types, types named in the paper, dosed 104 weeks, study length 104 weeks",negative (inactive)
same,TD50,"strain Fischer 344, males, inhaled, site: any site (literature study), lesion: several types, types named in the paper, dosed 102 weeks, study length 104 weeks",539 mg/kg/day
same,TD50,"strain Fischer 344, males, inhaled, site: mammary gland + subcutaneous tissue, lesion: adenoma, NOS + fibroadenoma + fibroma, dosed 102 weeks, study length 104 weeks",917 mg/kg/day
same,TD50,"strain Fischer 344, males, inhaled, site: mammary gland, lesion: adenoma, NOS + fibroadenoma, dosed 102 weeks, study length 104 weeks",1640 mg/kg/day
same,TD50,"strain Fischer 344, males, inhaled, site: mammary gland, lesion: fibroadenoma, dosed 102 weeks, study length 104 weeks",1770 mg/kg/day
same,TD50,"strain Fischer 344, males, inhaled, site: multiple organs + tunica vaginalis, lesion: mesothelioma, NOS + mesothelioma, malignant, dosed 102 weeks, study length 104 weeks",1440 mg/kg/day
same,TD50,"strain Fischer 344, males, inhaled, site: subcutaneous tissue, lesion: fibroma + sarcoma, NOS, dosed 102 weeks, study length 104 weeks",1990 mg/kg/day
same,TD50,"strain Fischer 344, males, inhaled, site: subcutaneous tissue, lesion: fibroma, dosed 102 weeks, study length 104 weeks",2180 mg/kg/day
same,TD50,"strain Fischer 344, males, inhaled, site: tunica vaginalis, lesion: mesothelioma, NOS + mesothelioma, malignant, dosed 102 weeks, study length 104 weeks",1640 mg/kg/day
same,TD50,"strain Fischer 344, males, inhaled, site: tunica vaginalis, lesion: mesothelioma, malignant, dosed 102 weeks, study length 104 weeks",4310 mg/kg/day
same,TD50,"strain Sprague-Dawley Spartan, females, inhaled, site: liver, lesion: Kupffer-cell sarcoma, dosed 104 weeks, study length 104 weeks",9340 mg/kg/day (inactive)
same,carcinogen call,"strain Sprague-Dawley Spartan, females, inhaled, site: liver, lesion: hepatocellular carcinoma, dosed 52 weeks, study length 104 weeks",negative (inactive)
same,TD50,"strain Sprague-Dawley Spartan, females, inhaled, site: liver, lesion: hepatocellular carcinoma, dosed 104 weeks, study length 104 weeks",9520 mg/kg/day (inactive)
same,carcinogen call,"strain Sprague-Dawley Spartan, females, inhaled, site: liver, lesion: neoplastic nodule, dosed 52 weeks, study length 104 weeks",negative (inactive)
same,carcinogen call,"strain Sprague-Dawley Spartan, females, inhaled, site: liver, lesion: neoplastic nodule, dosed 104 weeks, study length 104 weeks",negative (inactive)
same,TD50,"strain Sprague-Dawley Spartan, females, inhaled, site: mammary gland, lesion: adenocarcinoma, dosed 52 weeks, study length 104 weeks",1140 mg/kg/day (inactive)
same,carcinogen call,"strain Sprague-Dawley Spartan, females, inhaled, site: mammary gland, lesion: adenocarcinoma, dosed 104 weeks, study length 104 weeks",negative (inactive)
same,TD50,"strain Sprague-Dawley Spartan, females, inhaled, site: mammary gland, lesion: benign tumor, dosed 52 weeks, study length 104 weeks",38.1 mg/kg/day
same,TD50,"strain Sprague-Dawley Spartan, females, inhaled, site: mammary gland, lesion: benign tumor, dosed 104 weeks, study length 104 weeks",4430 mg/kg/day and 1550 mg/kg/day
same,TD50,"strain Sprague-Dawley Spartan, females, inhaled, site: mammary gland, lesion: fibroadenoma, dosed 52 weeks, study length 104 weeks",37.7 mg/kg/day
same,TD50,"strain Sprague-Dawley Spartan, females, inhaled, site: mammary gland, lesion: fibroadenoma, dosed 104 weeks, study length 104 weeks",631 mg/kg/day
same,carcinogen call,"strain Sprague-Dawley Spartan, males, inhaled, site: liver, lesion: one or several types, types not named, dosed 86 weeks, study length 86 weeks",negative (inactive)
same,TD50,"strain Sprague-Dawley Spartan, males, inhaled, site: mammary gland, lesion: benign tumor, dosed 104 weeks, study length 104 weeks",5080 mg/kg/day
same,TD50,"strain Sprague-Dawley Spartan, males, inhaled, site: salivary gland, lesion: several types, types named in the paper, dosed 104 weeks, study length 104 weeks",4260 mg/kg/day
same,TD50,"strain Sprague-Dawley, females, by gavage, site: any site (literature study), lesion: malignant tumor, dosed 64 weeks, study length 104 weeks",1740 mg/kg/day
same,TD50,"strain Sprague-Dawley, females, by gavage, site: mammary tissue, wider than the gland, lesion: malignant tumor, dosed 64 weeks, study length 104 weeks",1130 mg/kg/day
same,TD50,"strain Sprague-Dawley, females, by gavage, site: mammary tissue, wider than the gland, lesion: several types, types named in the paper, dosed 64 weeks, study length 104 weeks",1030 mg/kg/day
same,TD50,"strain Sprague-Dawley, females, inhaled, site: any site (literature study), lesion: malignant tumor, dosed 104 weeks, study length 104 weeks",477 mg/kg/day
same,TD50,"strain Sprague-Dawley, females, inhaled, site: any site (literature study), lesion: several types, types named in the paper, dosed 104 weeks, study length 104 weeks",32.1 mg/kg/day
same,TD50,"strain Sprague-Dawley, females, inhaled, site: mammary tissue, wider than the gland, lesion: several types, types named in the paper, dosed 104 weeks, study length 104 weeks",37.8 mg/kg/day
same,TD50,"strain Sprague-Dawley, males, by gavage, site: any site (literature study), lesion: malignant tumor, dosed 64 weeks, study length 104 weeks",935 mg/kg/day
